Measurements as given in PubChem BioAssay (NCI).
“And” between values parts separate entries of the source, which are not always exact repeats. Identical values can stand only once.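 96-well plates; 48 h exposure; 5 concentrations. Endpoints by linear interpolation between flanking doses. Not reached: highest tested concentration assigned. GI50: concentration for 50% inhibition of growth. TGI is the concentration that stops growth completely.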

How the values were obtained:
Experiment in all cases: DTP human tumour cell line panel, 48 h
SK-MEL-28 melanoma = test system: SK-MEL-28 melanoma
HOP-62 NSCLC = test system: HOP-62 NSCLC
NCI-H460 lung = test system: NCI-H460 lung
MCF7 breast = test system: MCF7 breast
NCI/ADR-RES ovarian = test system: NCI/ADR-RES ovarian
A498 renal = test system: A498 renal
786-0 renal = test system: 786-0 renal
SK-MEL-2 melanoma = test system: SK-MEL-2 melanoma
HL-60(TB) leukemia = test system: HL-60(TB) leukemia
MDA-MB-435 = test system: MDA-MB-435

| SMILES | TGI (SK-MEL-28 melanoma) [µM] | GI50 (HOP-62 NSCLC) [µM] | GI50 (NCI-H460 lung) [µM] | TGI (NCI-H460 lung) | TGI (MCF7 breast) [µM] | TGI (NCI/ADR-RES ovarian) [µM] | GI50 (A498 renal) [µM] | TGI (A498 renal) | TGI (786-0 renal) [µM] | GI50 (SK-MEL-2 melanoma) [µM] | GI50 (HL-60(TB) leukemia) [µM] | TGI (HL-60(TB) leukemia) | TGI (HOP-62 NSCLC) [µM] | TGI (SK-MEL-2 melanoma) [µM] | GI50 (SK-MEL-28 melanoma) [µM] | GI50 (MCF7 breast) [µM] | GI50 (NCI/ADR-RES ovarian) [µM] | GI50 (786-0 renal) [µM] | GI50 (MDA-MB-435) [µM] | TGI (MDA-MB-435) [µM] |
| --- | --- | --- | --- | --- | --- | --- | --- | --- | --- | --- | --- | --- | --- | --- | --- | --- | --- | --- | --- | --- |
| CC1[C@@]2(CCC(C)(C)O2)O[C@@H]2C=C3C4CCC5Cc6nc7c(nc6C[C@@]5(C)C4C[C@H](O)[C@@]3(C)[C@]12O)CC1CCC2C3=C[C@H]4O[C@@]5(O[C@@](C)(CO)C[C@@H]5O)C(C)[C@@]4(O)[C@]3(C)[C@@H](O)CC2[C@]1(C)C7 (stereo partly specified) | 0.221 | 0.000389 | 0.00135 | 0.365 µM and 0.0392 µM | 0.524 | 2.05 | 0.00106 | 0.14 µM and 0.0426 µM | 0.6 | 0.00444 | < 0.000365 | 0.331 µM and 0.0465 µM | – | – | – | – | – | – | – | – |
| O=C(N/C(=C\c1ccc([N+](=O)[O-])cc1)c1nc2ccccc2s1)c1ccccc1 | > 100 | – | – | – | – | – | – | > 100 µM | 34.1 | – | – | – | > 100 | 80.5 | – | – | – | – | – | – |
| Cc1ccc(NCCNCC(C)(C)O)c2c(=O)c3ccc(Cl)cc3sc12 | 3.38 | – | 1.22 | 2.6 µM | 2.97 | 3.02 | 1.63 | 3.09 µM | 3.04 | 1.59 | 1.45 | 3.17 µM | – | 3.28 | 1.81 | 1.44 | 1.52 | 1.57 | 1.74 | 3.27 |
| COc1ccc(/C=C/C(=O)c2c(-c3ccccc3)nn(C)c(=O)c2N2CC2C)cc1 (stereo unspecified) | > 100 | – | – | 65.5 µM | – | – | – | 80.7 µM | > 100 | – | – | 60.2 µM | > 100 | 47.6 | – | – | – | – | – | – |
| CCCCCCCCCCCC/C=C\CC[C@@H](O)[C@H](O)CC[C@H](O)[C@@H]1CC[C@@H](CCCCCCCC2=C[C@H](C)OC2=O)O1 | 56.3 | – | – | 26.6 µM | 34.6 | 27.8 | 16.4 | 36.6 µM | 40.3 | 12.6 | – | 6.56 µM | – | 33.4 | 20.2 | 4.76 | 7.19 | 15.7 | 11.4 | – |
| O=C(/C=C/c1ccc(O)c(O)c1)N1CCN(c2ccc(Cl)cc2)CC1 | 58.5 | 7.77 | 4.79 | 21.5 µM | 25 | 32.9 | 2.5 | 16.4 µM | 37 | 12.1 | – | – | 35.1 | 31.9 | 11.5 | 6.08 | 4.61 | 9.39 | 5.93 | 62.2 |
| N#C/C(=C\c1ccc(O)cc1)C(N)=O | > 100 | – | – | > 100 µM | > 100 | > 100 | – | > 100 µM | > 100 | – | – | > 100 µM | > 100 | > 100 | – | – | – | – | – | – |
| Nc1ccc(CC[C@H]2CCC/C=C/[C@@H]3C[C@H](O)C[C@H]3[C@H](O)/C=C/C(=O)O2)cc1 | 1.43 | 0.0463 | 0.043 | > 100 µM | – | – | 0.0169 | 0.0491 µM | 0.057 | 0.0381 | 0.0535 | 1.55 µM | – | 0.18 | 0.0244 | – | 0.0376 | 0.0239 | 0.0388 | 25.2 |
| COC(=O)C1=NC(=S)NC(c2ccccc2)C1c1nc2ccccc2o1 (stereo unspecified) | – | – | – | > 50 µM | – | – | – | > 50 µM | > 50 | – | – | > 50 µM | > 50 | > 50 | – | – | – | – | – | – |
